Source: BindingDB's records for doi:10.1021/acs.jmedchem.8b01226 (Recordati, 2019)
pKi: −log10 of the molar value.

Biological target: Metabotropic glutamate receptor 1 (Rattus norvegicus, UniProt P23385)
Assay: Displacement of […] from rat mGlu1 receptor expressed in CHO-TREx cell membranes after 30 mins by liquid scintillation spectrometric analysis

Sequence of Metabotropic glutamate receptor 1 (P23385 whole entry): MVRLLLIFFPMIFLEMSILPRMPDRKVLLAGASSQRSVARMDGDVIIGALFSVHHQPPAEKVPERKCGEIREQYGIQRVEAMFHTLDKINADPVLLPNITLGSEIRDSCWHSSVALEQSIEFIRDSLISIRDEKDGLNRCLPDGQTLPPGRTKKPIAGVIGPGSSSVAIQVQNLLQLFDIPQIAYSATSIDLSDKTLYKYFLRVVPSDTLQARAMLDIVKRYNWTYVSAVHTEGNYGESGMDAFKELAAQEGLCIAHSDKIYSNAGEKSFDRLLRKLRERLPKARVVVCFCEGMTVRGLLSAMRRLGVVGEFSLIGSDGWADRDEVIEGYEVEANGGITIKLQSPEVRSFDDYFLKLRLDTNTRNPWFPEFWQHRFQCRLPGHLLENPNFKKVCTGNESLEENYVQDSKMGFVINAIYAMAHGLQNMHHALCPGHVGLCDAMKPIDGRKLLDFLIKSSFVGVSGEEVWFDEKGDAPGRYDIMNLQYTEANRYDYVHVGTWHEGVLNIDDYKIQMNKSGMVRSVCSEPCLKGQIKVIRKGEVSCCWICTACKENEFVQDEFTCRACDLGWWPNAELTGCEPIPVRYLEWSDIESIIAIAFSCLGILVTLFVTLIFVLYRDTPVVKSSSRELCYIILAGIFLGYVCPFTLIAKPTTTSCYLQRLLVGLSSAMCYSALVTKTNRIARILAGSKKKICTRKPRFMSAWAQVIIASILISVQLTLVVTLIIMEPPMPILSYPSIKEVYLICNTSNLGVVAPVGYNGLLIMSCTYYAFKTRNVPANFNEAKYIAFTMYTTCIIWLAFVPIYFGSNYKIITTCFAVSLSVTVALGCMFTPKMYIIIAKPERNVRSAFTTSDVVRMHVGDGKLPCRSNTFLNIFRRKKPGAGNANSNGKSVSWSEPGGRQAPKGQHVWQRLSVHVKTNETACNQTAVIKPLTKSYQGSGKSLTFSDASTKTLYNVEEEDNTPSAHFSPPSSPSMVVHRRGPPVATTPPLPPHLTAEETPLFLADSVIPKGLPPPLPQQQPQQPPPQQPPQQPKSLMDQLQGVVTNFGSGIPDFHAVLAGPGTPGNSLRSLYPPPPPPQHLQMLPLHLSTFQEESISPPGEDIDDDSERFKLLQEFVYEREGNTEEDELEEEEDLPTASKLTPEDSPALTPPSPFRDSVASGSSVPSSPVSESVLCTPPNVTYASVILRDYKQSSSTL

pKi: < 5.00
Structure (SMILES): Cc1nc(C#Cc2cccnc2)cs1 [3-(2-(2-methylthiazol-4-yl)ethynyl)pyridine]
